Laboratory results taken from US11007183B2, “Cancer treatments using combinations of PI3K/Akt pathway and ERK inhibitors” (BIOMED VALLEY DISCOVERIES, INC., priority 2013, dated 2021).

Columns and labels:
[1] = tested on: HCT116 human colorectal carcinoma xenograft; assay: HCT116 xenograft tumor growth delay (TGD) study; assay type: in vivo, mice
Method: Female athymic nude mice (Crl:NU(Ncr)-Foxn1^nu, Charles River) were eight weeks old with a body weight (BW) range of 14.6 to 25.7 grams on Day 1 of the study. The animals were fed ad libitum water (reverse osmosis, 1 ppm Cl), and NIH 31 Modified and Irradiated Lab Diet® consisting of 18.0% crude protein, 5.0% crude fat, and 5.0% crude fiber. The mice were housed on irradiated Enrich-O'Cobs™ Laboratory Animal Bedding in static microisolators on a 12-hour light cycle at 20-22° C. (68-72° F.) and 40-60% humidity.
HCT116 human colon carcinoma cells were cultured in RPMI-1640 medium supplemented with 10% fetal bovine serum, 2 mM glutamine, 100 units/mL penicillin G sodium, 100 μg/mL streptomycin sulfate, and 25 μg/mL gentamicin. The tumor cells were grown in tissue culture flasks in a humidified incubator at 37° C., in an atmosphere of 5% CO2 and 95% air.
The HCT116 cells used for implantation were harvested during exponential growth and resuspended in 50% Matrigel (BD Biosciences): 50% phosphate buffered saline at a concentration of 2.5×10^7 cells/mL. On the day of tumor implant, each test mouse was injected subcutaneously in the right flank with 5×10^6 cells (0.2 mL cell suspension), and tumor growth was monitored as the average size approached the target range of 100 to 150 mm^3. Tumors were measured in two dimensions using calipers, and volume was calculated using the formula: Tumor Volume (mm^3)=(w^2×l)/2 where w=width and l=length, in mm, of the tumor. Tumor weight may be estimated with the assumption that 1 mg is equivalent to 1 mm^3 of tumor volume.
Ten days after tumor implantation, designated as Day 1 of the study, the animals were sorted into nine groups (Groups 1-9) each consisting of fifteen mice and one group (Group 10) consisting of ten mice.
BVD-523 doses were prepared by suspending the required amount of BVD-523 powder in 1% carboxymethyl cellulose (CMC) in deionized water (“Vehicle”). A 10 mg/mL BVD-523 stock was prepared, and was used to dose the 100 mg/kg BVD-523 group. Aliquots of the stock were diluted with the vehicle to a concentration of 5.0 mg/mL, which provided a 50 mg/kg BVD-523 dosage in a dosing volume of 10 mL/kg. The BVD-523 doses were stored at 4° C. for up to one week. The 1% CMC vehicle was used to dose the control group.
Paclitaxel (Lot CP2N10007) was purchased as a dry powder from Phyton Biotech, LLC (Fort Worth, Tex.). A paclitaxel stock solution (30 mg/mL) in 50% ethanol: 50% Cremophor EL was prepared and stored at room temperature protected from light during the dosing period. On each day of dosing, an aliquot of the paclitaxel stock was diluted with 5% dextrose in water (D5W) to yield a 3.0 mg/mL paclitaxel dosing solution in a vehicle consisting of 5% ethanol: 5% Cremophor EL: 90% D5W.
On Day 1 of the study, mice were sorted into nine groups (Group 1-9) each consisting of fifteen mice and one group (Group 10) consisting of ten mice, and dosing was initiated according to the treatment plan summarized in Table 4 below. All doses were given by oral gavage (p.o.) except paclitaxel, which was given i.v. For each agent, the dosing volume of 10 mL/kg (0.2 mL per 20 grams of BW) was scaled to the BW of the individual animal. […] For bid dosing, dosing was initiated in the afternoon of Day 1, so that one dose was given on the first day (“first day 1 dose”).
Group 1 received 1% CMC vehicle p.o. bid to end, and served as the control group for calculation of % TGD. Group 10 received paclitaxel i.v. at 30 mg/kg once every other day (qod) for five doses (qod×5), and served as the positive control for the model.
Groups 4 and 5 received 50 and 100 mg/kg BVD-523, respectively, p.o. bid to end.

HCT116 Parental = assay: Single agent proliferation assay (CellTiter-Glo, 72 h); assay type: cell-based, human; details: Homo sapiens, HCT-116, 72 h
Method: Cells were seeded in 96-well plates at the densities and media conditions indicated in Table 11 in McCoy's 5A containing either 10% FBS or 1% charcoal-stripped FBS (CS-FBS), and allowed to adhere overnight prior to addition of compound or vehicle control. Compounds were prepared from DMSO stocks to give the desired final concentrations. The final DMSO concentration was constant at 0.1%. Test compounds were incubated with the cells for 72 h at 37° C., 5% CO2 in a humidified atmosphere. CellTiter-Glo® reagent (Promega, Madison, Wis.) was added according to manufacturer's instructions and luminescence detected using the BMG FLUOstar plate reader (BMG Labtech, Ortenberg, Germany). The average media only background value was deducted and the data analysed using a 4-parameter logistic equation in GraphPad Prism (GraphPad Software, La Jolla, Calif.).

[2] = Group 1 (vehicle) vs Group 4 (BVD-523 50 mg/kg po bid to end)
[3] = Group 4: BVD-523 50 mg/kg po bid to end
[4] = Group 5: BVD-523 100 mg/kg po bid to end

Structure (SMILES): CC(C)Nc1cc(-c2c[nH]c(C(=O)N[C@H](CO)c3cccc(Cl)c3)c2)c(Cl)cn1 [BVD-523]
- Overall activity in the HCT116 xenograft model ([1]; BVD-523 50 mg/kg p.o. bid to end): active
- Are survival curves diff.? [1, 2]: Yes
- Hazard Ratio [1, 2]: 4.813
- Logrank test Chi square [1, 2]: 21.86
- Median survival Ratio (Column A/Column B) [1, 2]: 0.7517
- % TGD [1, 3]: 33%
- MTV (n): number of animals on D 45 (45-day survivors) [1, 3]: (5)
- MTV D 45 (median tumor volume) [1, 3]: 1666 mm^3
- Median TTE [1, 3]: 43.5 days
- Regressions CR [1, 3]: 0
- Regressions PR [1, 3]: 0
- Regressions TFS [1, 3]: 0
- T − C [1, 3]: 10.8 days
- % TGD [1, 4]: 38%
- MTV (n): number of animals on D 45 (45-day survivors) [1, 4]: (11)
- MTV D 45 (median tumor volume) [1, 4]: 405 mm^3
- Median TTE [1, 4]: 45.0 days
- Regressions CR [1, 4]: 0
- Regressions PR [1, 4]: 0
- Regressions TFS [1, 4]: 0
- T − C [1, 4]: 12.3 days
- IC50 (HCT116 Parental; 1% CS-FBS): 20 nM
- IC50 (HCT116 Parental; 10% FBS): 170 nM
